Laboratory results from ChEMBL document CHEMBL2074207, “Functional characterization of human breast cancer resistance protein (BCRP, ABCG2) expressed in the oocytes of Xenopus laevis” (Mol Pharmacol, 2003).

target: T1, Broad substrate specificity ATP-binding cassette transporter ABCG2 (Homo sapiens, UniProt Q9UNQ0); assay: TP_TRANSPORTER: uptake in BCRP-expressing oocyte cells; assay type: functional, cell-based; settings: xenopus laevis
T1 sequence (Q9UNQ0 whole entry): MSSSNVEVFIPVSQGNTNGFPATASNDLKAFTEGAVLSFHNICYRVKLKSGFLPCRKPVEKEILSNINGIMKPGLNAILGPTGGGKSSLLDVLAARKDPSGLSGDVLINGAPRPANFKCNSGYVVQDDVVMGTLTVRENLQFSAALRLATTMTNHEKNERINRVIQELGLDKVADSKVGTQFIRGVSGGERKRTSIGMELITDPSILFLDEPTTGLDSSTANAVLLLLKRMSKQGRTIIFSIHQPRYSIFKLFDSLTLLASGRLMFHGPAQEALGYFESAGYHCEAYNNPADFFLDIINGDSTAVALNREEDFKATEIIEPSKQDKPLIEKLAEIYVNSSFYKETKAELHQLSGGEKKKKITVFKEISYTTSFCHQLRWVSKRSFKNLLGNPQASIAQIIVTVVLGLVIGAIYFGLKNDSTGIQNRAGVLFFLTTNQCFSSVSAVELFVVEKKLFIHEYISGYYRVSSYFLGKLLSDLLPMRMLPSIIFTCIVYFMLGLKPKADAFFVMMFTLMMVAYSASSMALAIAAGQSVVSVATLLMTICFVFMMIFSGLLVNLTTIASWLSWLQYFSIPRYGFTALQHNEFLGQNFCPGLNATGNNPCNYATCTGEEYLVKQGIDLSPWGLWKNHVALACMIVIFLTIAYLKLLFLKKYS

Activity | SMILES
substrate [] | CN1CC[C@H](c2c(O)cc(O)c3c(=O)cc(-c4ccccc4Cl)oc23)[C@H](O)C1 [ALVOCIDIB]
substrate [] | COC(=O)c1ccccc1-c1c2ccc(=N)cc-2oc2cc(N)ccc12.Cl [RHODAMINE123]
substrate [] | COc1cccc2c1C(=O)c1c(O)c3c(c(O)c1C2=O)C[C@@](O)(C(C)=O)C[C@@H]3O[C@H]1C[C@H](N)[C@H](O)[C@H](C)O1 [DAUNORUBICIN]

SMILES | Activity
O=C1c2c(O)ccc(O)c2C(=O)c2c(NCCNCCO)ccc(NCCNCCO)c21 [MITOXANTRONE] | substrate []
